According to US6458823B1, “Diaminopyrazoles” (Wyeth, priority 1998, dated 2002):
pIC50: −log10 of the molar value. Counter-ions that a name gives are not always drawn.

Assays:
[1] = system: Isolated Rat Bladder Strips; assay: Inhibition of contractions in isolated rat bladder strips (KCl-enhanced contractile activity); set-up: species or system Sprague-Dawley rats; conditions: 0.5 h, 15 mM KCl added, contractile activity measured in last minute of 30 minute challenge
Description: Sprague-Dawley rats (150-200 g) are rendered unconscious by CO2 asphyxiation and then euthanized by cervical dislocation. The bladder is removed into warm (37° C.) physiological salt solution (PSS) of the following composition (mM): NaCl, 118.4; KCI, 4.7; CaCl2, 2.5; MgSO4, […]; NaHCO3, 24.9; KH2PO4, 1.2; glucose, 11.1; EDTA, 0.023; gassed with […]; pH 7.4. The bladder is opened and then cut into strips 1-2 mm in width and 7-10 nmm in length. The strips are subsequently suspended in a 10 mL tissue bath under an initial resting tension of 1.5 g. The strips are held in place by two surgical clips one of which is attached to a fixed hook while the other is attached to an isometric force transducer. […] The carbachol is then washed out and the tissue allowed to relax to its resting level of activity. Following a further 30 min period of recovery an additional 15 mM KCl are introduced into the tissue bath. This increase in KCl concentration results in a large increase in the amplitude of spontaneous contractions (and initiation of contractions in previously quiescent strips) superimposed upon a small increase in basal tone. Following stabilization of this enhanced level of contractile activity, incremental increases in the concentration of test compound or vehicle are introduced into the tissue bath. Contractile activity is measured for each compound or vehicle concentration during the last minute of a 30 minute challenge.
The isometric force developed by the bladder strips is measured using a […] to elicit 50% inhibition of pre-drug contractile activity (IC50 concentration) and is calculated from this concentration-response curve.

[2] = system: hypertrophied bladder (detrusor) smooth muscle; assay: Inhibition of spontaneous contractions in vivo, hypertrophied rat bladder model (cystometry); set-up: species or system Female Sprague-Dawley rats; conditions: 10 mg/kg p.o., cystometry one hour after dosing
Description: In addition, we tested the ability of compounds to inhibit the hyperactivity of hypertrophied bladder (detrusor) smooth muscle in conscious female rats with hypertrophied bladders and thereby alleviate urinary incontinence in rats according to the following protocol described by Malmgren et al. (J. Urol. 1989, 142, 1134.):
Female Sprague-Dawley rats, ranging in weight from 190-210 g are used. Up to 25 animals are prepared each time. After development of bladder hypertrophy 4-8 animals are used per test.
Compounds are dissolved in PEG-200 and administered by gastric gavage or intravenously in a volume of 5 mL/kg. For primary screening all drugs are administered at the arbitrary dose of 10 mg/kg p.o. to groups of 4 rats.
The animals are anesthetized with halothane. Through a midline incision the bladder and urethra are exposed and a ligature of 4-0 silk is tied around the proximal urethra in the presence of a stainless steel rod (1 mm diameter) to produce a partial occlusion. […] The following urodynamic variables are recorded: […]
The mean value of each variable is calculated before and after compound administration. For each compound the changes in the variables measured are compared to the values obtained before treatment and expressed as percent inhibition. The data are also subjected to 2-way analysis of variance to determine significant (p<0.05) changes in the variable measured. […]

| SMILES | melting point [°C] | pIC50 [1] | % Red (F): percent reduction in the total number of spontaneous contractions [2] [%] |
| --- | --- | --- | --- |
| Cc1nn(C)c(NCC(C)(C)C)c1NCc1ccc(C#N)cc1 (as salt: tosylate) [Example 2, 4-{[5-(2,2-Dimethyl-propylamino)-1,3-dimethyl-1H-pyrazol-4-ylamino]-methyl}-benzonitrile] | 102 to 104 |  |  |
| Cc1nn(C)c(NCC(C)(C)C)c1NCc1ccncc1 [Example 1, N(3)-(2,2-Dimethyl-propyl)-2,5-dimethyl-N(4)-pyridin-4-ylmethyl-2H-pyrazole-3,4-diamine] | 88 to 90 | 5.31 | −36 ± 7 |
| Cc1nn(C)c(NCC(C)(C)C)c1NCc1ccc(C#N)cc1 [Example 2, 4-{[5-(2,2-Dimethyl-propylamino)-1,3-dimethyl-1H-pyrazol-4-ylamino]-methyl}-benzonitrile] |  | 5.08 |  |
| CCC(C)(C)CNc1c(NCc2ccc(C#N)cc2)c(C)nn1C [Example 5, 4-{[5-(2,2-Dimethyl-butylamino)-1,3-dimethyl-1H-pyrazol-4-ylamino]-methyl}-benzonitrile] |  | 4.90 |  |
| Cc1nn(C)c(NCC(C)(C)C)c1NCc1cccnc1 [Example 7, N(3)-(2,2-Dimethyl-propyl)-2,5-dimethyl-N(4)-pyridin-3-ylmethyl-2H-pyrazole-3,4-diamine] |  | 4.81 |  |
| Cc1cc(C)c(CNc2c(C)nn(C)c2NCC(C)(C)C)c(C)c1 [Example 8, N(3)-(2,2-Dimethyl-propyl)-2,5-dimethyl-N(4)-(2,4,6-trimethyl-benzyl)-2H-pyrazole-3,4-diamine] | 114 to 120 | 4.75 |  |
| CCC(C)(C)CNc1c(NCc2ccncc2)c(C)nn1C [Example 9, N(3)-(2,2-Dimethyl-butyl)-2,5-dimethyl-N(4)-pyridin-4-ylmethyl-2H-pyrazole-3,4-diamine] |  | 4.72 |  |
| CCC(C)(C)CNc1c(NCc2ccccc2)c(C)nn1C [Example 10, N(4)-Benzyl-N(3)-(2,2-dimethyl-butyl)-2,5-dimethyl-2H-pyrazole-3,4-diamine] |  | 4.70 |  |
| Cc1nn(C)c(NCC(C)(C)C)c1Nc1ccccc1 [Example 11, N(3)-(2,2-Dimethyl-propyl)-2,5-dimethyl-N(4)-phenyl-2H-pyrazole-3,4-diamine] |  | 5.37 |  |
| Cc1nn(C)c(NCC(C)(C)C)c1Nc1ccc(C#N)cc1 [Example 13, 4-[5-(2,2-Dimethyl-propylamino)-1,3-dimethyl-1H-pyrazol-4-ylamino]-benzonitrile] | 131 to 134 | 4.75 |  |

Now from value to compound, other results behind:

| melting point [°C] | pIC50 [1] | SMILES | % Red (F): percent reduction in the total number of spontaneous contractions [2] [%] |
| --- | --- | --- | --- |
| 32 to 39 | 4.94 | Cc1nn(C)c(NCC(C)(C)C)c1NCc1ccc(F)cc1 [Example 3, N(3)-(2,2-Dimethyl-propyl)-N(4)-(4-fluoro-benzyl)-2,5-dimethyl-2H-pyrazole-3,4-diamine] |  |
|  | 4.93 | Cc1nn(C)c(NCC(C)(C)C)c1NCc1ccc(Cl)cc1Cl [Example 4, N(4)-(2,4-Dichloro-benzyl)-N(3)-(2,2-dimethyl-propyl)-2,5-dimethyl-2H-pyrazole-3,4-diamine] |  |
|  | 4.87 | Cc1nn(C)c(NCC(C)(C)C)c1NCc1ccc(F)cc1F [Example 6, N(4)-(2,4-Difluoro-benzyl)-N(3)-(2,2-dimethyl-propyl)-2,5-dimethyl-2H-pyrazole-3,4-diamine] |  |
|  | 4.90 | Cc1cc(Cl)ccc1Nc1c(C)nn(C)c1NCC(C)(C)C [Example 12, N(4)-(4-Chloro-2-methyl-phenyl)-N(3)-(2,2-dimethyl-propyl)-2,5-dimethyl-2H-pyrazole-3,4-diamine] |  |
|  | 4.64 | Cc1nn(C)c(NCC(C)(C)C)c1Nc1ccc(Cl)cc1 [Example 14, N(4)-(4-Chloro-phenyl)-N(3)-(2,2-dimethyl-propyl)-2,5-dimethyl-2H-pyrazole-3,4-diamine] |  |
